# Measurements as given in patent US4883661A, “Use of arginine as an lymphokine synergist” (priority 1987, dated 1989).
# What was measured:
# C1300 neuroblastoma [1] = assay: Tumor growth and survival, C1300 neuroblastoma in protein malnourished mice; assay type: in vivo, A/J mice; settings: for median survival: ARG p<0.001 compared with GLY and LPD (LPD, 29 days)
# Method: (§3) The effects of supplemental arginine (ARG) in the malnourished tumor bearing host were evaluated. […] Body weight, tumor weight and carcass weight were measured weekly and duration of survival was recorded. On day 10, specific T cell cytotoxicity was measured; concanavalin A (con A) stimulation of thymocytes and mixed lymphocyte tumor cell culture (MLTC) were measured on days 14 (d14) and 21(d21) (n=5/group).
# C1300 neuroblastoma [2] = assay: Mixed lymphocyte tumor cell culture (MLTC), C1300 tumor bearing protein malnourished mice; assay type: in vivo, A/J mice; settings: for MLTC Stimulation Index (d21): day 21
# Method: as §3
# YAC targets = assay: Basal and Poly I:C-induced natural killer (NK) activity, 4 hour chromium release, mice on dietary supplement; assay type: in vivo, CBA/J mice; settings: for NK(Induced) activity (% toxicity): Poly I:C-induced, * p,0.05 (ARG); for NK(Induced) activity (% toxicity) / NK(basal) activity (% toxicity): 1% dietary supplementation at least 10 days, YAC targets, 4 hour chromium release
# Method: (§1) The effect of arginine on IL-2 dependent responses is shown by the following example. The effect of arginine on two IL-2 - dependent responses (T cell activation and cytotoxic T lymphocyte (CTL) development)and on interferon-influenced natural killer (NK) cell activity was evaluated.
# (§2) CBA/J mice (n=100) received 1% arginine (ARG) dietary supplementation o isonitrogenous glycine (GLY) for al least 10 days. CTL development was determined by sensitizing mice to BALB/C spleen cell alloantigen in vivo (×3 immunizations) and measuring cytotoxicity against allolymphoblasts as targets. Basal and Poly I:C - induced NK activity was measured against YAC targets. Using indirect immunofluorescence, IL-2 receptor expression (M7/20) on purified splenic T cells was determined 24 and 48 hours after con A activation. Results are presented in Table 1 wherein data are expressed as % toxicity in a 4 hour Chromium release assay (CTL and NK cells only) and % expression (IL-2). (*p,0.05 Student's T test)
# thymus = settings: cited from earlier work
# [3] = system: breast adenocarcinoma (C3HBA); settings: rats; cited from earlier work
# [4] = humans, mainly liver disease; cited from earlier work
# allolymphoblasts = assay: Cytotoxic T lymphocyte (CTL) development, 4 hour chromium release, mice on dietary supplement; assay type: in vivo, CBA/J mice; settings: for CTL cytotoxicity (% toxicity): 1% dietary supplementation at least 10 days, 4 hour chromium release assay, * p,0.05 Student's t test (ARG)
# Method: as §1, §2
# IL-2 receptor = IL-2 receptor expression (M7/20) on purified splenic T cells after con A activation, indirect immunofluorescence; assay type: in vivo, CBA/J mice; settings: for IL 2 (24 hr) receptor expression (% expression): 24 hours after con A activation; for IL 2 (24 hr) receptor expression (% expression) / IL 2 (48 hr) receptor expression (% expression): * p,0.05 (ARG); for IL 2 (48 hr) receptor expression (% expression): 48 hours after con A activation
# Method: as §1, §2
# [5] = given prior to or concomitantly with amino acids, glycine or ammonia; rats; cited from earlier work
# lymphocytes = settings: in vitro incubation in media with higher amounts of arginine; cited from earlier work
# [6] = dietary supplement before and/or after wounding, rats; cited from earlier work
# [7] = Body weight and carcass weight, C1300 tumor bearing protein malnourished mice; assay type: in vivo, A/J mice; settings: for total body weight and mean carcass weight: compared with LPD mice
# Method: as §3
# C3HBA tumors = settings: supplemented after tumor excision, cited from earlier work
# [8] = dietary arginine, young growing rat; cited from earlier work
# [9] = system: peripheral blood lymphocyte; settings: daily oral supplements (30 g), cited from earlier work
# [10] = 1% in drinking water 6 days after the injury; cited from earlier work
# [11] = 30 g daily in divided doses for 1 week, human; cited from earlier work
# [12] = intraperitoneal, after 24 hour starvation, rats; cited from earlier work
# thymocytes = assay: Concanavalin A stimulation of thymocytes, C1300 tumor bearing protein malnourished mice; assay type: in vivo, A/J mice; settings: mean ± SD, * p<0.001, low protein diet + 1% supplement
# Method: as §3
# C1300 neuroblastoma [13] = settings: mouse, in vivo
# Method: Body weight, tumor weight and carcass weight were measured weekly and duration of survival was recorded. On day 10, specific T cell cytotoxicity was measured; concanavalin A (con A) stimulation of thymocytes and mixed lymphocyte tumor cell culture (MLTC) were measured on days 14 (d14) and 21(d21) (n=5/group).
# [14] = mean ± SD, low protein diet + 1% supplement
smiles,measurement,setting,value
"N=C(N)NCCC[C@H](N)C(=O)O [ARG, arginine]",median survival,C1300 neuroblastoma [1],38 days
same,"median survival, in words",C1300 neuroblastoma [1]; p<0.001 compared with GLY and LPD mice,prolonged
same,tumor growth,"C1300 neuroblastoma [1]; p<0.05, compared with GLY and LPD mice",retarded tumor growth
same,MLTC Stimulation Index (d21),C1300 neuroblastoma [2]; [14],2.2 ± 1.3
same,immune responses in tumor bearing protein malnourished mice,C1300 neuroblastoma [2]; supplemental ARG,augmented immune responses
same,NK(Induced) activity (% toxicity),YAC targets,43 ± 12%
same,NK(basal) activity (% toxicity),YAC targets,19 ± 5%
same,"inducible NK activity, in words",YAC targets; supplemental arginine,significantly augmented
same,lymphocyte content of the thymic glands,thymus; in vivo,significant increases
same,thymic involution with injury,thymus; injured,minimizes the thymic involution
same,blastogenesis of the lymphocytes in response to mitogens,thymus; thymic,significant enhancement
same,thymic weight,thymus; uninjured rats and mice,increases thymic weight
same,tumor appearance,[3],slowed tumor appearance
same,tumor incidence,[3],reducing tumor incidence
same,"therapeutic effect, elevated blood ammonia",[4],ranged from excellent to minimal
same,CTL cytotoxicity (% toxicity),allolymphoblasts,69 ± 15%
same,"CTL activity, in words",allolymphoblasts; supplemental arginine,significantly augmented
same,IL 2 (24 hr) receptor expression (% expression),IL-2 receptor,52 ± 4%
same,IL 2 (48 hr) receptor expression (% expression),IL-2 receptor,59 ± 6%
same,"IL-2 receptor kinetics, in words",IL-2 receptor; supplemental arginine,enhanced
same,protection against toxic effects of hyperammonemia,[5],abrogated
same,blastogenic responses in vitro,lymphocytes,does not lead to greater blastogenic responses
same,wound healing,[6],accelerated
same,total body weight and mean carcass weight,[7],significantly preserved
same,host nutritional status,[7]; supplemental ARG,preserved
same,survival time of mice which subsequently developed tumors,C3HBA tumors,prolonged survival time
same,tumor recurrence rate,C3HBA tumors; without supplement 100% recurrence,30%
same,growth,[8],more rapid growth
Cl.N=C(N)NCCC[C@H](N)C(=O)O [arginine HCl],peripheral blood lymphocyte blastogenesis,[9]; healthy volunteers,increased
same,time until blastogenesis effect is evident,[9],≤ 3 days
same,recovery,[10],100%
same,weight loss after injury,[10],reversed the weight loss
same,untoward effects,[11],no untoward effects except for mild gastrointestinal discomfort
same,LD50,[12],3800 mg/kg
"NC(=O)NCCC[C@H](N)C(=O)O [citrulline, reference compound]",protection against toxic effects of hyperammonemia,[5],"share the ""detoxifying"" effects of arginine"
"NCC(=O)O [GLY, glycine, reference compound]",median survival,C1300 neuroblastoma [1],30 days
same,MLTC Stimulation Index (d14),"C1300 neuroblastoma [2]; day 14, mean ± SD, * p<0.001, low protein diet + 1% supplement",3.3 ± 0.9
same,MLTC Stimulation Index (d21),C1300 neuroblastoma [2]; [14],2.5 ± 0.8
same,ConA Stimulation Index (d21),thymocytes; day 21,24.9 ± 5
same,ConA Stimulation Index,thymocytes; first ConA column (d14 per text),38.4 ± 7
same,Cytotoxicity,C1300 neuroblastoma [13],15 ± 1.4%
same,NK(Induced) activity (% toxicity),YAC targets,24 ± 14%
same,NK(basal) activity (% toxicity),YAC targets,13 ± 4%
same,CTL cytotoxicity (% toxicity),allolymphoblasts,54 ± 14%
same,IL 2 (24 hr) receptor expression (% expression),IL-2 receptor,30 ± 4%
same,IL 2 (48 hr) receptor expression (% expression),IL-2 receptor,46 ± 45%
same,total body weight and mean carcass weight,[7],significantly preserved
